Source: patent publication US8323622B2, “Ionic complex nanoparticles for detecting heparanase activities and method for preparing the same” (Korea Institute of Science and Technology, priority 2009, dated 2012)

How the values were obtained:
heparanase [1] = target: T1, heparanase (Mus musculus, UniProt Q6YGZ1); assay: Imaging of heparanase expression in SCC7 cancer model; type: in vivo; conditions: 20 mg/kg heparin injected into cancer tissues 20 minutes before probe; SCC7 nude mice
T1 construct: It is known that the SCC7 cancer tissues express a large amount of heparanase; from tissue; host or cells: SCC7 tumour tissue in nude mice
T1 sequence (Q6YGZ1 150-535 limits assumed): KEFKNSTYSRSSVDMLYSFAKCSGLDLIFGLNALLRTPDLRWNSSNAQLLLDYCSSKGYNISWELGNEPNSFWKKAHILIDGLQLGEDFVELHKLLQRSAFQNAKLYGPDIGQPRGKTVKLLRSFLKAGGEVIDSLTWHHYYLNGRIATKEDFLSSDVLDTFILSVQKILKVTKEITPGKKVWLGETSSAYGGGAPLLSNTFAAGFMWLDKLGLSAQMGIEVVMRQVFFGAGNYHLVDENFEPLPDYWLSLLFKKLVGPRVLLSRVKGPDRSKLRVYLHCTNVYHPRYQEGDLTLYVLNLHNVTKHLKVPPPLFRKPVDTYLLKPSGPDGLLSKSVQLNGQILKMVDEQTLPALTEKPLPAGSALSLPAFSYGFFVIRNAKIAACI
T1 sequence (Q6YGZ1 28-101 limits assumed): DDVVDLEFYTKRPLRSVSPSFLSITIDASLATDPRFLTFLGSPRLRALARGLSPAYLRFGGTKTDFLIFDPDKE
Procedure: To establish a cancer model, 1×10^6 SCC7 cancer cells were implanted in nude mice. Here, the SCC7 are epithelial cancer cells, and commercially available from American Type Culture Collection (ATCC). Next, when the cancer has a size of about 5-8 mm, the ionic-complex nanoparticles of HS-Cy5.5/GC-BHQ3 were injected into veins of the mice tails. Then, heparanase expression was imaged by using an eXplore Optix image device.
It is known that the SCC7 cancer tissues express a large amount of heparanase. Accordingly, in order to test the ability of a heparanase inhibitor to inhibit heparanase, 20 mg/kg of heparin was injected into cancer tissues. After lapse of 20 minutes, the ionic-complex nanoparticles of HS-Cy5.5/GC-BHQ3 were injected into veins of the mice tails. Then, decrease of heparanase activities was imaged by using the explore Optix image device.

heparanase [2] = target: T2, heparanase (Homo sapiens, UniProt Q9Y251); assay: Fluorescence recovery of nanoparticles treated with heparanase or heparanase+inhibitor; type: biochemical; conditions: 37[…], one hour; HS-Cy5.5/GC-BHQ3 probe
T2 sequence (Q9Y251 158-543 limits assumed): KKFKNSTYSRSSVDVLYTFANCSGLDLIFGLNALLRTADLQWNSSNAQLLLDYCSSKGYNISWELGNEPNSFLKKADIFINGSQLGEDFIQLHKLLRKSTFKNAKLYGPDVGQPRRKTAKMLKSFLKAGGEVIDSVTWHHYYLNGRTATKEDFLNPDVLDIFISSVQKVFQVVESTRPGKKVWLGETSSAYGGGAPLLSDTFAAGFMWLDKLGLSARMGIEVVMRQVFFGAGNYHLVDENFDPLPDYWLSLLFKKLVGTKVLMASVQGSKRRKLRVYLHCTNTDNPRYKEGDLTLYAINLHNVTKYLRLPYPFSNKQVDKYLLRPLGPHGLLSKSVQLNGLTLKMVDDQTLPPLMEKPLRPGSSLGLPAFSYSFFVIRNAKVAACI
T2 sequence (Q9Y251 36-109 limits assumed): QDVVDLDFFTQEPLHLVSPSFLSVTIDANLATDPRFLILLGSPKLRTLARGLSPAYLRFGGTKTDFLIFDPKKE
Procedure: By using the ionic-complex nanoparticles of HS-Cy5.5/GC-BHQ3 prepared in the preparation example 1, heparanase activities with or without heparanase inhibitor treatment were imaged.
The ionic-complex nanoparticles of HS-Cy5.5/GC-BHQ3 prepared in the preparation example 1 were treacted with ‘heparanase’ and ‘heparanase+inhibitor’ at a temperature of 37 °C for one hour, and then fluorescence emission therefrom by an enzyme degradation reaction was observed. After lapse of one hour, the fluorescence of the nanoparticles was observed by using a Kodak Image Station 4000MM Digital Imaging System mounted with a charge coupled device (CCD) camera. […] From the result, it could be seen that the ionic-complex nanoparticles of HS-Cy5.5/GC-BHQ3 could image heparanase enzymes, and could be applied to a composition for screening drugs of heparanase inhibitors or effects of drugs.

heparin
fluorescence intensity in cancer tissues of heparanase inhibitor-injected group (heparanase [1]): decreased fluorescence intensity | fluorescence intensity of nanoparticles when 'heparanase+inhibitor' were treated (heparanase [2]): decreased
